Where two headings read alike, the source gives them in different places. Where no end group is shown, it is not given here.
What was measured:
[1] = tested on: previously treated squamous-cell lung cancer; conditions: cited from earlier work; for Median survival time (MST): CheckMate-017, primary outcome; for Disease progression rate / Response rate: CheckMate-017
[2] = tested on: previously treated non-squamous non-small-cell lung cancer; conditions: cited from earlier work; for Median survival time (MST): CheckMate-057, primary outcome; for Disease progression rate / Response rate: CheckMate-057
[3] = tested on: previously treated non-small-cell lung cancer; conditions: cited from earlier work
[4] = tested on: previously treated non-small-cell lung cancer; conditions: cited from earlier work; for MST: POPLAR
[5] = Repeated administration toxicity trial for 10 weeks into the dorsal skin; conditions: both sexes, Sprague-Dawley (Crl:CD(SD)), rat, in vivo; both males and females, 10 weeks repeated administration; read-out: No-observed-adverse-effect level
Method: A toxicity trial was performed in which a mixture of SLP1 and SLP2 was repeatedly administered for 10 weeks (intermittently administered five times every 14 days) with an adjuvant into the dorsal skin of Sprague-Dawley rats (Crl:CD(SD), 6-week-old at the start of administration, a group of 10 males and 10 females).
The following two doses were adopted as the doses of the test substances: 0.2 mg/kg (SLP1: 0.2 mg/kg+SLP2: 0.2 mg/kg) and 2 mg/kg (SLP1: 2 mg/kg+SLP2: 2 mg/kg). SLP1 and SLP2 dissolved in water for injection and Picibanil were mixed with an equal amount of an oil adjuvant MONTANIDE ISA 51 VG (ISA51) to provide an emulsion, which was administered into the dorsal skin in an administration volume of 1 mL/kg. Further, a vehicle control group to be administered an emulsion of water for injection and Picibanil with ISA51 and a physiological saline control group to be administered physiological saline were formed.
During the administration period, general condition observation, body weight measurement, and food intake measurement were performed, and urine examination and ophthalmologic examination were performed in week 10 of the administration. At the end of the administration period, hematological examination, blood chemical examination, an autopsy, organ weight measurement, and histopathological examination were performed.

[6] = KEYNOTE-010, tumor PD-L1 expression of 1% or more
[7] = KEYNOTE-010, tumor PD-L1 expression of 50% or more

Compound	Median survival time (MST) [1]	Disease progression rate [1]	Response rate [1]	Median survival time (MST) [2]	Disease progression rate [2]	Response rate [2]	MST [4]	NOAEL at 1680 h [5]	further results
CC(=O)O[C@@]12CO[C@@H]1C[C@H](O)[C@@]1(C)C(=O)[C@H](O)C3=C(C)[C@@H](OC(=O)[C@H](O)[C@@H](NC(=O)OC(C)(C)C)c4ccccc4)C[C@@](O)([C@@H](OC(=O)c4ccccc4)[C@H]21)C3(C)C [docetaxel]	6.0 months	30%	31%	9.4 months	29%	12%	9.7 months	–	MST [3, 6]: 8.5 months; Response rate [3, 6]: 9.3%; Response rate [3, 7]: 7.9%; Response rate ([4]; group expressing no PD-L1 in the cancer immune microenvironment): about 15%
ISQTPGINLDLGSGVKVKIIPKEEH [SLP2]	–	–	–	–	–	–	–	> 2 mg/kg	–
NQQLKVGILHLGSRQKKIRIQLRSQ [SLP1]	–	–	–	–	–	–	–	> 2 mg/kg	–
atezolizumab	–	–	–	–	–	–	12.6 months	–	Response rate ([4]; group highly expressing PD-L1 in the cancer immune microenvironment): 38%
nivolumab	9.2 months	33%	36%	12.2 months	44%	19%	–	–	–
pembrolizumab	–	–	–	–	–	–	–	–	Progression-free survival (PFS) as compared to docetaxel group [3, 6]: No significant difference; PFS as compared to docetaxel group [3, 7]: significantly improved
